{"source": "patent US20220257531A1", "about": "“COMPOSITIONS AND METHODS FOR TREATMENT OF A FIBROTIC DISEASE” (Avexxin AS, priority 2017, published 2022)", "test_system": "BLM-induced pulmonary fibrosis in C57BL/6J mice", "experiment": "Bleomycin (BLM)-induced pulmonary fibrosis model, Example 4", "type": "in vivo", "text": "The bleomycin model of idiopathic fibrosis (IPF) is a well-characterized and currently an extensively used animal model of Interstitial lung disease (ILD) due to its: i) ability to reproduce many aspects of the disease, ii) good reproducibility, and iii) ease of induction. Overall, studies using the bleomycin model have identified many of the cellular and molecular mechanisms now recognized as being important in pathogenesis of IPF, as well as novel therapies for ILDs. The model is based on intratracheal administration of bleomycin in mice that results in alveolar epithelial damage, alveolar inflammation and fibrosis within a period of 21 days. Consequently, the model allows therapeutic testing of novel agents within a reasonably short period of time (Liu T eta al, Methods Mol Biol. 2017;1627:27-42).\nTest Article & Formulations Compound B (Synthetica A/S, Norway) was formulated for subcutaneous administration in a nano-emulsion containing 2 mg/ml Compound B, 2 mg/ml MCT oil (Lipoid), 2 mg/ml Polysorbate 80 (Fluka) and sodium citrate buffer 10 mM (pH 7). The final solution was sterilized by filtration and saturated with Argon 5.0 AGA prior to aliquoting in 10 ml tubes stored at −20° C. till further use. A separate Polysorbate 80- and sodium citrate buffer-based vehicle solution without Compound B and MCT oil was also prepared, sterilized, aliquoted and stored, serving as the subcutaneous vehicle control used in the UUO animal study. Nintedanib (approved and commercialized for IPF under the brand names Ofev/Vargatef) was used as a positive control. The compound was purchased from Chemexpress Co., Ltd. (China) and suspended in 1% methylcellulose.\nSix-week-old female C57BL/6J mice were obtained from Japan SLC, Inc. (Japan). Animals were kept in an animal room facility at a temperature of 23±2° C., humidity of 45±10%, under a 12-hour light and dark cycle (light from 8:00 to 20:00). A high pressure of 20±4 Pa was kept in the experimental room to prevent contamination. The animals were housed in TPX cages (CLEA Japan; maximum of 6 mice per cage) and fed with a sterilized normal diet (CE-2; CLEA Japan, Japan) provided ad libitum, being placed in a metal lid on the top of the cage. Sterilized Paper-Clean (Japan SLC) was used for bedding and was replaced once a week. Pure water was provided ad libitum from a water bottle equipped with a rubber stopper and a sipper tube. […]\nThe viability, clinical signs and behavior were monitored every day. Body weight was recorded daily after the day of starting the BLM administration (Day 0). […]\nTo quantify lung hydroxyproline content, frozen whole left lung samples were processed by an acid hydrolysis method as follows. […]"}
{"smiles": "COC(=O)c1ccc2c(c1)NC(=O)/C2=C(\\Nc1ccc(N(C)C(=O)CN2CCN(C)CC2)cc1)c1ccccc1", "note": "[Nintedanib]", "values": [{"measurement": "Body weight changes at sacrifice", "setting": "100 mg/kg per os daily Day 7-20, Day 21, % of baseline Day 0, mean ± SD", "result": "103 ± 5", "unit": "%"}, {"measurement": "Lung Hydroxyproline", "setting": "100 mg/kg per os daily Day 7-20, Day 21, mean ± SD", "result": "50.6 ± 14.5", "unit": "μg/ml left lung"}, {"measurement": "Ashcroft score", "setting": "Masson's Trichrome, 100 mg/kg per os daily Day 7-20, mean ± SD", "result": "1.6 ± 1.0"}, {"measurement": "mice found dead before reaching Day 21", "setting": "per treatment group of 12, treatment Day 7-20", "result": "three out of 12"}]}
